Results from patent US20160025753A1, “ASSAY FOR CANNABINOIDS AND METHODS OF USE THEREOF” (priority 2014, published 2016).
Where “and” joins values, the source holds several entries; their conditions need not be identical. Equal entries are not always repeated. Where two headings read alike, the source gives them in different places.

How the values were obtained:
[1] = target: T1, human cannabinoid receptor 1 membrane preparation (Homo sapiens, UniProt P21554); format: binding
T1 construct: purchased EMD Millipore
T1 sequence (P21554 whole entry): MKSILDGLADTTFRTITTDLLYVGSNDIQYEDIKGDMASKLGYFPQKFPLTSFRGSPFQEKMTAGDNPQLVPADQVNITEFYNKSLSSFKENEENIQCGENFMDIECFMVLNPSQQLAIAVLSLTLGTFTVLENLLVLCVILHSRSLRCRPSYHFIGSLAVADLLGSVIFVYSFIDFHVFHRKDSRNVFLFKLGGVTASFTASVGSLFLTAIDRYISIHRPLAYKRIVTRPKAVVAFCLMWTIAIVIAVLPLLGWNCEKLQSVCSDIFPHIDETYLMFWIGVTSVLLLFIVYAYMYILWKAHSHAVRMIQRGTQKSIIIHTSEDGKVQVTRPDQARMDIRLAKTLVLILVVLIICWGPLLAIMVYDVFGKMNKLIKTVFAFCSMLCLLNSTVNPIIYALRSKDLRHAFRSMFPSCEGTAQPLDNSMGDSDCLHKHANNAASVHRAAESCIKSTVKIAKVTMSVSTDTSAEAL

[2] = target: T2, CB1 human recombinant protein (Homo sapiens, UniProt P21554); assay: Heterogeneous competitive plate assay, Δ9-THC conjugate coated 96-well plate, anti-CB1 antibody/HRP detection (Example 3)
T2 sequence (P21554 whole entry): as above

[3] = target: T2, CB1 human recombinant protein; format: binding; design: purchased Abnova
CB2 receptors = CB2 receptors (Homo sapiens, UniProt P34972); details: background statement; cited from earlier work
CB2 receptors, sequence (P34972 whole entry): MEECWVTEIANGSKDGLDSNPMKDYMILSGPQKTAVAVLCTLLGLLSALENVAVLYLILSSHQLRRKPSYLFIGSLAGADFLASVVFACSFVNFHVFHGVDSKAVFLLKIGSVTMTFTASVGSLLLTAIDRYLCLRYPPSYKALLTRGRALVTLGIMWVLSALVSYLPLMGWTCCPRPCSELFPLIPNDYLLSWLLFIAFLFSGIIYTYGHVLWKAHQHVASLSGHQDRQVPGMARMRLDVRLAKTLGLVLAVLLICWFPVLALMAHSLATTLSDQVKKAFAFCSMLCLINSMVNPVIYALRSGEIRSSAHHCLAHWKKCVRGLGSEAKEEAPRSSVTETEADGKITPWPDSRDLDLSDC

Compound: CCCCCCCC(C)(C)c1ccc([C@H]2CCC[C@@H](O)C2)c(O)c1 [Cannabicyclohexanol]
- Relative Fluorescent Units (RFU) ([1]; 1 μg/mL sample, excitation 535 nm, emission 610 nm, no cannabinoids 47,934): 20,667 RFU
- Detection by the assay (in words) ([1]; 1 μg/mL solution of each): comparable response

Compound: CCCCCCC(C)(C)c1cc(O)c2c(c1)OC(C)(C)[C@@H]1CC=C(CO)C[C@@H]21 [HU-210]
- Inhibition of absorbance at 450 nm (in words) ([2]; sample containing 100 ng/ml): significant inhibition of absorbance
- Average Absorbance @ 450 nm ([2]; with 100 ng/mL HU-210, average of 6 replicates, no cannabinoid blank 2.279): 1.480
- Absorbance @ 450 nm ([2]; with 100 ng/mL HU-210, single replicates, no cannabinoid blank average 2.279): 1.435 and 1.480 and 1.416 and 1.602 and 1.379 and 1.569
- Detection by the assay (in words) [1]: comparable response
- Relative Fluorescent Units (RFU) [1]: 21,014 RFU

Compound: CCCCCn1cc(C(=O)c2cccc3ccccc23)c2cc(O)ccc21 [JWH-018 5-hydroxyindole metabolite]
- Signal inhibition (relative absorbance at 450 nm) ([3]; 100 ng/mL test sample, FIG. 8): showed less signal inhibition

Compound: CCCCCn1cc(C(=O)c2cccc3ccccc23)c2ccccc21 [JWH-018]
- Signal inhibition (relative absorbance at 450 nm) [3]: demonstrated signal inhibition
- Detection by the assay (in words) [1]: comparable response
- Relative Fluorescent Units (RFU) [1]: 22,299 RFU

Compound: C=C(C)[C@@H]1CCC(C)=C[C@H]1c1c(O)cc(CCCCC)cc1O [cannabidiol, Cannabidiol]
- Affinity for CB2 receptors (CB2 receptors): low affinity
